# Measurements as given in PubChem BioAssay (NCI).
#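 Briefly, cells in 96-well plates were exposed to five compound concentrations for 48 h, and endpoints were estimated by linear interpolation. GI50 = concentration required for 50% inhibition of growth. Definition used: TGI = concentration required for complete inhibition of growth.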
# Key:
# Experiment in all cases: NCI anticancer screen, dose series, 48 h
# [1] = tested on: SF-295 CNS
# [2] = tested on: UO-31 renal
# [3] = tested on: SK-OV-3 ovarian
# [4] = tested on: SK-MEL-5 melanoma
# [5] = tested on: HOP-92 NSCLC
# [6] = tested on: HCT-116 colon
# [7] = tested on: UACC-62 melanoma
# [8] = tested on: OVCAR-3 ovarian
# [9] = tested on: ACHN renal
# [10] = tested on: SW-620 colon
# [11] = tested on: T-47D breast
# [12] = tested on: RPMI-8226 leukemia
# [13] = tested on: OVCAR-4 ovarian
# [14] = tested on: TK-10 renal
# [15] = tested on: 786-0 renal
# [16] = tested on: EKVX NSCLC
# [17] = tested on: SNB-75 CNS
# [18] = tested on: NCI-H522 lung
# [19] = tested on: MOLT-4 leukemia
# [20] = tested on: NCI-H23 lung
# [21] = tested on: OVCAR-8 ovarian
# [22] = tested on: HS 578T breast
# [23] = tested on: BT-549 breast
# [24] = tested on: U251 CNS
# [25] = tested on: COLO 205 colon
# [26] = tested on: HT29 colon
# [27] = tested on: SNB-19 CNS
# [28] = tested on: A549 NSCLC
# [29] = tested on: MDA-MB-435
# [30] = tested on: LOX IMVI melanoma
# [31] = tested on: CCRF-CEM leukemia
# [32] = tested on: KM12 colon
# [33] = tested on: MALME-3M melanoma
# [34] = tested on: HCT-15 colon
# [35] = tested on: MCF7 breast
# [36] = tested on: NCI-H460 lung
# [37] = tested on: UACC-257 melanoma
# [38] = tested on: NCI/ADR-RES ovarian
# [39] = tested on: SF-539 CNS
# [40] = tested on: A498 renal
# [41] = tested on: SK-MEL-2 melanoma
# [42] = tested on: MDA-MB-231 breast
# [43] = tested on: SF-268 CNS
# [44] = tested on: SK-MEL-28 melanoma
# [45] = tested on: SN12C renal
# [46] = tested on: DU-145 prostate
# [47] = tested on: CAKI-1 renal
# [48] = tested on: PC-3 prostate
# [49] = tested on: K-562 leukemia
# [50] = tested on: IGROV1 ovarian
# [51] = tested on: HCC-2998 colon
# [52] = tested on: RXF 393 renal
# [53] = tested on: HOP-62 NSCLC
# [54] = tested on: M14 melanoma
# [55] = tested on: SR leukemia
# [56] = tested on: OVCAR-5 ovarian
# [57] = tested on: NCI-H226 lung
# [58] = tested on: HL-60(TB) leukemia
compound,measurement,setting,value
COc1ccc2c(-c3ccc(OCCN(C)C)cc3)c(Oc3ccccc3)c(=O)oc2c1,TGI,[1],8.91 µM
same,TGI,[2],13.9 µM
same,TGI,[3],18.1 µM
same,TGI,[4],5.89 µM
same,TGI,[5],25.8 µM
same,TGI,[6],8.79 µM
same,TGI,[7],9.82 µM
same,TGI,[8],21.2 µM
same,TGI,[9],22 µM
same,TGI,[10],16.7 µM
same,TGI,[11],> 59.9 µM
same,TGI,[12],15.5 µM
same,TGI,[13],40.7 µM
same,TGI,[14],23 µM
same,TGI,[15],8.68 µM
same,TGI,[16],23.5 µM
same,TGI,[17],21.6 µM
same,TGI,[18],11.3 µM
same,TGI,[19],11.8 µM
same,TGI,[20],28.8 µM
same,TGI,[21],26.2 µM
same,TGI,[22],21.5 µM
same,TGI,[23],24.4 µM
same,TGI,[24],8.9 µM
same,TGI,[25],9.59 µM
same,TGI,[26],22.4 µM
same,TGI,[27],17.2 µM
same,TGI,[28],10.4 µM
same,TGI,[29],7.12 µM
same,TGI,[30],26.6 µM
same,TGI,[31],10.1 µM
same,TGI,[32],> 39.4 µM
same,TGI,[33],11.6 µM
same,TGI,[34],14.6 µM
same,TGI,[35],15.3 µM
same,TGI,[36],22.2 µM
same,TGI,[37],4.52 µM
same,TGI,[38],20.4 µM
same,TGI,[39],16.7 µM
same,TGI,[40],26.8 µM
same,TGI,[41],13.9 µM
same,TGI,[42],10.2 µM
same,TGI,[43],18.9 µM
same,TGI,[44],5.53 µM
same,TGI,[45],18.7 µM
same,TGI,[46],27.6 µM
same,TGI,[47],25.1 µM
same,TGI,[48],18.9 µM
same,TGI,[49],12.4 µM
same,TGI,[50],19.1 µM
same,TGI,[51],10.3 µM
same,TGI,[52],20.5 µM
same,TGI,[53],27.3 µM
same,TGI,[54],3.08 µM
same,TGI,[55],5.17 µM
same,TGI,[56],28.2 µM
same,TGI,[57],40 µM
O=C1c2ccccc2C(=O)c2c1ccc(C(Br)Br)c2Cl,GI50,[1],11.7 µM
same,TGI,[1],23.9 µM
same,GI50,[2],1730 nM
same,TGI,[2],3.78 µM
same,GI50,[3],15.1 µM
same,TGI,[3],30 µM
same,GI50,[4],5.84 µM
same,TGI,[4],18.1 µM
same,GI50,[5],1670 nM
same,TGI,[5],3.35 µM
same,GI50,[6],1580 nM
same,TGI,[6],3.02 µM
same,GI50,[7],4.56 µM
same,TGI,[7],16.6 µM
same,GI50,[8],1660 nM
same,TGI,[8],3.12 µM
same,GI50,[9],1570 nM
same,TGI,[9],3.02 µM
same,GI50,[10],1780 nM
same,TGI,[10],3.4 µM
same,GI50,[11],1760 nM
same,TGI,[11],5.79 µM
same,GI50,[13],1780 nM
same,TGI,[13],4.3 µM
same,GI50,[14],3.91 µM
same,TGI,[14],12.3 µM
same,GI50,[15],1710 nM
same,TGI,[15],3.25 µM
same,GI50,[16],4.42 µM
same,TGI,[16],17.8 µM
same,GI50,[17],13.7 µM
same,TGI,[17],26.9 µM
same,GI50,[18],1600 nM
same,TGI,[18],3.3 µM
same,GI50,[19],2810 nM
same,TGI,[19],9.32 µM
same,GI50,[20],1910 nM
same,TGI,[20],4.92 µM
same,GI50,[21],3.16 µM
same,TGI,[21],8.87 µM
same,GI50,[22],2810 nM
same,TGI,[22],9.11 µM
same,GI50,[23],1790 nM
same,TGI,[23],4.61 µM
same,GI50,[24],1750 nM
same,TGI,[24],3.24 µM
same,GI50,[26],1870 nM
same,TGI,[26],3.54 µM
same,GI50,[27],3.55 µM
same,TGI,[27],13.5 µM
same,GI50,[28],16.7 µM
same,TGI,[28],32.3 µM
same,GI50,[29],3.03 µM
same,TGI,[29],10.9 µM
same,GI50,[30],1590 nM
same,TGI,[30],3.08 µM
same,GI50,[31],2100 nM
same,TGI,[31],8.21 µM
same,GI50,[32],2040 nM
same,TGI,[32],5.28 µM
same,GI50,[33],1690 nM
same,TGI,[33],3.38 µM
same,GI50,[34],1690 nM
same,TGI,[34],3.4 µM
same,GI50,[35],1690 nM
same,TGI,[35],3.86 µM
same,GI50,[36],2010 nM
same,TGI,[36],3.85 µM
same,GI50,[37],12.1 µM
same,TGI,[37],24.8 µM
same,GI50,[38],3.1 µM
same,TGI,[38],14.9 µM
same,GI50,[39],1990 nM
same,TGI,[39],4.61 µM
same,GI50,[40],17 µM
same,TGI,[40],31.9 µM
same,GI50,[41],3.27 µM
same,TGI,[41],12.4 µM
same,GI50,[42],1870 nM
same,TGI,[42],3.7 µM
same,GI50,[43],1680 nM
same,TGI,[43],3.45 µM
same,GI50,[44],11.9 µM
same,TGI,[44],24.4 µM
same,GI50,[45],1920 nM
same,TGI,[45],3.82 µM
same,GI50,[58],3.66 µM
same,TGI,[58],11.2 µM
same,GI50,[46],2070 nM
same,TGI,[46],4.7 µM
same,GI50,[48],2380 nM
same,TGI,[48],6.28 µM
same,GI50,[50],1700 nM
same,TGI,[50],3.89 µM
same,GI50,[51],3.42 µM
same,TGI,[51],12.1 µM
same,GI50,[52],2000 nM
same,TGI,[52],4.79 µM
same,GI50,[53],2100 nM
same,TGI,[53],4.67 µM
same,GI50,[54],2670 nM
same,TGI,[54],9.06 µM
same,GI50,[55],1830 nM
same,TGI,[55],4.33 µM
same,GI50,[56],11.1 µM
same,TGI,[56],23.9 µM
same,GI50,[57],4.49 µM
same,TGI,[57],24.4 µM
